Measured values: patent US7691965B2, “Helical synthetic peptides that stimulate cellular cholesterol efflux” (The Regents of the University of California, priority 2002, dated 2010)
Where a SMILES comes first, the peptide text is derived from it.

Key:
ABCA1 [1] = molecular target: T1, ABCA1 (Mus musculus, UniProt P41233); assay: ABCA1 stabilization: immunoblot of ABCA1 protein in J774 macrophage membranes after cAMP withdrawal; format: cell-based; set-up: J774 macrophages were used to assess relative ABCA1 protein levels in the presence and absence of synthetic peptides; endogenous in cells; host or cells: J774 macrophages treated with a cAMP analog (CPT-cAMP or 8-bromo-cAMP); details: concentration dependence studies, J774 macrophages
[2] = Relative lipid binding affinity by surface balance technique (monolayer exclusion pressure); format: physicochemical; details: for Monolayer exclusion pressure: surface balance technique
Excerpt: (§1) Relative Lipid Binding Affinity, Hydrophobicity, and Amphiphilicity of Synthetic Peptides—In some experiments, the relative lipid binding affinity of unique peptides was quantified using a surface balance technique (Gillotte, K L. et al., J. Biol. Chem., 274:2021-2028 (1999)). For routine analyses, a turbid solution of dimyristoylphosphatidylcholine (DMPC) was used to assess the relative capacity of synthetic peptides to solubilize phospholipid as described (Palgunachari, M. N. et al., Arterioscler. Thromb. Vasc. Biol., 16:328-338 (1996); McLean, L. R. and Hagaman, K. A., Biochim. Biophys. Acta, 1167:289-295 (1993)). The DMPC was used at a final concentration of 0.08 mg/ml in 10 mM Tris-saline (pH 7.4). The final weight ratio of peptides relative to DMPC was 1:1. The absorbance (400 nm) of samples was monitored continuously over a period of 30 min at 25° C. Hydrophobicity of helical peptides was calculated using the consensus scale (Eisenberg D., Annu. Rev. Biochem., 53:593-623 (1984)). The hydrophobic moment (kcal/mol) of synthetic peptides, which is a measure of helix amphiphilicity, was calculated as described by Eisenberg et al. (Eisenberg, D. et al., Nature, 299:371-374 (1982)).

ABCA1 [3] = molecular target: T1, ABCA1; assay: Cellular cholesterol efflux from [3H]cholesterol-labeled J774 macrophages with and without cAMP analog; format: cell-based; set-up: endogenous in cells; host or cells: J774 macrophages treated with a cAMP analog (CPT-cAMP or 8-bromo-cAMP); details: for ABCA1-dependent cholesterol efflux (result in words): lipid-free acceptor, J774 macrophages with vs without cAMP analog
Excerpt: Suitable cholesterol efflux assays are described in, e.g., Bielicki, J. K and Oda, M. N., Biochemistry, 41:2089-2096 (2002); Jia, Z. et al., Biochem. Biophys. Res. Common., 297:206-213 (2002). In some embodiments, a polypeptide known to mediate cholesterol efflux (e.g., helix 9/10 of Apo A-I) is used to screen for additional mediators of cholesterol efflux in a cell based assay. For example, cell lines in which cholesterol efflux can be enhanced using a cAMP analog that up-regulates ABCA1 protein expression (e.g., J774 macrophages) can conveniently be used to assess the ability of an Apo A-I, Apo A-II, Apo A-IV, Apo E, Apo C-I, Apo C-II, Apo C-III, or Serum Amyloid A peptide to mediate cholesterol efflux. The cells are incubated with labeled cholesterol (e.g., [^3H]cholesterol) under conditions appropriate for cholesterol uptake by the cells. cAMP or cAMP analogs (e.g., CPT-cAMP) is incubated with the cells for a suitable time before the initiation of cellular cholesterol efflux, i.e., prior to contacting the cells with helix 9/10 of Apo A-I or the test compound. Measurement of labeled cholesterol appearing in the medium is used to determine the cholesterol efflux mediating activity of the test compound.
Cellular Cholesterol Efflux Protocol—J774 macrophages were used to assess the cholesterol efflux properties of synthetic amphipathic α-helical peptides (Bielicki, J. K and Oda, M. N., Biochemistry, 41:2089-2096 (2002); Jia, Z. et al., Biochem. Biophys. Res. Common., 297:206-213 (2002)). This cell line was chosen because cholesterol efflux can be enhanced using a cAMP analog that up-regulates ABCA1 protein expression. The cells were seeded onto 24-well culture plates and labeled for 48 h with [^3H]cholesterol in RPMI 1640 supplemented with 1% fetal bovine serum. The cAMP analog CPT-cAMP was added (0.3 mM, final concentration) to the cells at least 12 h before the initiation of cellular cholesterol efflux. Synthetic peptides in lipid-free form were added to cells in serum-free RPMI. The lipid-free form of full-length recombinant apoA-I was used as a positive control to define apparent ABCA1-dependent cholesterol efflux in the presence and absence of cAMP stimulation. Efflux results were expressed as a percentage of the initial cellular [^3H] appearing in the medium as a function of time subtracting the background efflux obtained using serum-free medium alone.

ABCA1 [4] = molecular target: T1, ABCA1; assay: ABCA1 stabilization: immunoblot of ABCA1 protein in J774 macrophage membranes after cAMP withdrawal; format: cell-based; set-up: J774 macrophages were used to assess relative ABCA1 protein levels in the presence and absence of synthetic peptides; endogenous in cells; host or cells: J774 macrophages treated with a cAMP analog (CPT-cAMP or 8-bromo-cAMP); details: 20 μg/ml peptide, 6 h without cAMP, J774 macrophages
Description: J774 macrophages were incubated (18 h) with 0.5 mM 8-bromo-cAMP in medium containing 0.1% bovine serum albumin to up-regulate ABCA1 protein expression. Washed cells were subsequently exposed for 6 h to bovine serum albumin medium with (+) or without (−) 8-bromo-cAMP and the indicated synthetic peptides (20 μg/ml). None refers to no peptides. The cellular membrane content of ABCA1 protein was measured by immunoblot analysis.
ABCA1 Stabilization—J774 macrophages were used to assess relative ABCA1 protein levels in the presence and absence of synthetic peptides. Cells were grown in 10% fetal bovine serum, extensively rinsed, and incubated (18 h) with Dulbecco's modified Eagle's medium containing 0.1% bovine serum albumin plus the cAMP analog 8-bromo-cAMP. Cells were next exposed to synthetic peptides or serum-free medium in the absence of the cAMP stimulus to evaluate whether ABCA1 protein was stabilized or degraded. Relative levels of ABCA1 protein were assessed by immunoblot analysis of cell membranes (Oram, J. F. et al., J. Biol. Chem., 278:52379-52385 (2003)). ABCA1 was visualized using an enhanced chemiluminescence detection assay.
To assess ABCA1 stabilization, J774 macrophages were treated with a cAMP analog to up-regulate ABCA1 protein expression and then incubated for 6 h without cAMP. In the absence of inducer, ABCA1 protein is rapidly degraded in these cells (FIG. 9). […] Thus, it appears that the helical combinations that stimulate cholesterol efflux also stabilize the ABCA1 transporter.

[5] = DMPC clearance assay (solubilization of a turbid phospholipid solution); format: physicochemical
Excerpt: as §1, with “Peptides-In” for “Peptides—In”, “[…].,” for “Hagaman, K. A.,”

T1 sequence (P41233 whole entry): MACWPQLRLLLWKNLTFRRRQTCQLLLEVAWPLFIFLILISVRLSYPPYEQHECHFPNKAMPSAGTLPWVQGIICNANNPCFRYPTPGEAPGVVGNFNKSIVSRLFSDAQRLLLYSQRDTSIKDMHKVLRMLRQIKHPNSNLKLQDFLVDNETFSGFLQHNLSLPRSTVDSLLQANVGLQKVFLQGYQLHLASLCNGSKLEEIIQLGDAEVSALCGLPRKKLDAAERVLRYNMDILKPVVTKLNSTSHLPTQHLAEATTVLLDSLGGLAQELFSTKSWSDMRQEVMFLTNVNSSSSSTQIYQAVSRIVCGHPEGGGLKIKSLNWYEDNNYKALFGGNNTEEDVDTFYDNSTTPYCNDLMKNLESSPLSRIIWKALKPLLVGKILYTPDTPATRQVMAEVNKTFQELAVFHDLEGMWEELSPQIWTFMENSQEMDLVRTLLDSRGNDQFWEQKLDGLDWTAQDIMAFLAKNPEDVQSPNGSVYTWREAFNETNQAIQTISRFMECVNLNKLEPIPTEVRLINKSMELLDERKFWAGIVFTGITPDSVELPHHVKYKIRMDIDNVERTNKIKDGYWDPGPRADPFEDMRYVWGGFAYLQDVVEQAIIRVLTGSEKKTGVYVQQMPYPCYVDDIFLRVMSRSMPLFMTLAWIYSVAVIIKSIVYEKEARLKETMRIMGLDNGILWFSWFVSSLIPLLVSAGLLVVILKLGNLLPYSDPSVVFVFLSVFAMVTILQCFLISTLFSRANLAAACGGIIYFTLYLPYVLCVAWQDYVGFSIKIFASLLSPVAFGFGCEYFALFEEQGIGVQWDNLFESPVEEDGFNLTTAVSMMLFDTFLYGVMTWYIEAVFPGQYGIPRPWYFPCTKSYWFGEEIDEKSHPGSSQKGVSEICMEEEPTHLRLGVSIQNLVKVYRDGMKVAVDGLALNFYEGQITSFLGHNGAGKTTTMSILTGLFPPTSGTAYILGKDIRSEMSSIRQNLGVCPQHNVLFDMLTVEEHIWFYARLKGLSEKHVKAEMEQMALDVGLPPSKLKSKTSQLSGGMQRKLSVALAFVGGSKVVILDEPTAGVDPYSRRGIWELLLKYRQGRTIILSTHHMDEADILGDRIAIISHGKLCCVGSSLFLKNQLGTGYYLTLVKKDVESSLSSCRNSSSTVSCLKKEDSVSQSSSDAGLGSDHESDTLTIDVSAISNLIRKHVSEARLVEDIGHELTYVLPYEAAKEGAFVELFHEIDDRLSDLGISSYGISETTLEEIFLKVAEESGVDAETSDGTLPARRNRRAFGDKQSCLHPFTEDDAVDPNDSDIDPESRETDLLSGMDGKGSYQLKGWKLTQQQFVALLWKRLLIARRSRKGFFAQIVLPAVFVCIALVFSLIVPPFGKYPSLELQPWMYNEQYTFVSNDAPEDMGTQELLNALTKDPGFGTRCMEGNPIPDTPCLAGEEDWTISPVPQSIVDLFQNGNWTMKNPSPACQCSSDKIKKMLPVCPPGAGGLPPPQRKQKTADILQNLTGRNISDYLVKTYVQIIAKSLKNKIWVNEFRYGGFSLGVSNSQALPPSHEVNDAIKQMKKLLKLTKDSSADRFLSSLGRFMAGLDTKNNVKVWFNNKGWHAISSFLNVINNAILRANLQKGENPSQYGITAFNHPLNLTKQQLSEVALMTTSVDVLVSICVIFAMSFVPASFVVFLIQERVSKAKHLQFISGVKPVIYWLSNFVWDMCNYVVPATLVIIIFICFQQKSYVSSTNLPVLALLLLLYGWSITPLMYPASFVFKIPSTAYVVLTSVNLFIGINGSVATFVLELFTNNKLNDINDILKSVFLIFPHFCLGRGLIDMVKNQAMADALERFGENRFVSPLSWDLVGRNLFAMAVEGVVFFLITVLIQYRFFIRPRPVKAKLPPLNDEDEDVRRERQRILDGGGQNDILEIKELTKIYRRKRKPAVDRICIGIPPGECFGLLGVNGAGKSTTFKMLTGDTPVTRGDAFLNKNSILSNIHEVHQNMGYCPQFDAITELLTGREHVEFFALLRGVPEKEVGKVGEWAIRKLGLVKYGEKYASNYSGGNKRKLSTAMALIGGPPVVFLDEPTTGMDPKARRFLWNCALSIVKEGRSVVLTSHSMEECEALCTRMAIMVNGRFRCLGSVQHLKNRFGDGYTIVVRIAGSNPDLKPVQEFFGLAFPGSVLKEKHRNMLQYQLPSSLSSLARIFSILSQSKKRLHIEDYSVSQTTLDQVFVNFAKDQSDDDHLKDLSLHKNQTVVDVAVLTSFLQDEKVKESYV

Compound	lowest concentration that prevented ABCA1 degradation (ABCA1 [1]) [µg/mL]	lipid binding affinity (surface balance technique), result in words [2]	concentration at which cholesterol efflux reached maximal levels (ABCA1 [3]; cAMP-treated J774 cells) [µg/mL]	ABCA1-dependent cholesterol efflux (result in words) (ABCA1 [3])	Monolayer exclusion pressure [2] [dynes/cm]	ABCA1 stabilization (result in words) (ABCA1 [4])	ABCA1 stabilization (result in words) (ABCA1 [4]; listed as Helix 10)	ABCA1-dependent cholesterol efflux (result in words) (ABCA1 [3]; listed as Helix 10)	ABCA1-dependent cholesterol efflux (result in words) (ABCA1 [3]; listed as helix 10)	DMPC clearance [5]	cholesterol efflux relative to that obtained with full-length apoA-I (ABCA1 [3]; 75 μg/ml, cAMP-treated macrophages) [%]
full-length apoA-I: full-length recombinant His-tagged apolipoprotein A-I from a bacterial expression system, positive control [reference compound]	~10	identical	10	increased dramatically upon the up-regulation of the ABCA1 transporter							
CC(=O)N1CCC[C@H]1C(=O)N[C@H](C(=O)N[C@@H](CC(C)C)C(=O)N[C@@H](CCC(=O)O)C(=O)N[C@@H](CO)C(=O)N[C@@H](Cc1ccccc1)C(=O)N[C@@H](CCCCN)C(=O)N[C@H](C(=O)N[C@@H](CO)C(=O)N[C@@H](Cc1ccccc1)C(=O)N[C@@H](CC(C)C)C(=O)N[C@@H](CO)C(=O)N[C@@H](C)C(=O)N[C@@H](CC(C)C)C(=O)N[C@@H](CCC(=O)O)C(=O)N[C@@H](CCC(=O)O)C(=O)N[C@@H](Cc1ccc(O)cc1)C(=O)N[C@H](C(=O)N[C@@H](CCCCN)C(=O)N[C@@H](CCCCN)C(=O)N[C@@H](CC(C)C)C(=O)N[C@@H](CC(N)=O)C(N)=O)[C@@H](C)O)C(C)C)C(C)C [Helical peptide 10] (Ac-PVLESFKVSFLSALEEYTKKLN-NH2)					28	failed to prevent ABCA1 degradation	nor does it stabilize ABCA1	does not mediate ABCA1-dependent cholesterol efflux	poor mediator of cellular cholesterol efflux		
CC(=O)N1CCC[C@H]1C(=O)N[C@@H](C)C(=O)N[C@@H](CC(C)C)C(=O)N[C@@H](CCC(=O)O)C(=O)N[C@@H](CC(=O)O)C(=O)N[C@@H](CC(C)C)C(=O)N[C@@H](CCCNC(=N)N)C(=O)N[C@@H](CCC(N)=O)C(=O)NCC(=O)N[C@@H](CC(C)C)C(=O)N[C@@H](CC(C)C)C(=O)N[C@@H](CC(C)C)C(=O)N[C@@H](CCCCN)C(=O)N[C@@H](CC(C)C)C(=O)N[C@@H](CC(C)C)C(=O)N[C@@H](CC(=O)O)C(=O)N[C@@H](CC(N)=O)C(=O)N[C@@H](Cc1c[nH]c2ccccc12)C(=O)N[C@@H](CC(=O)O)C(=O)N[C@@H](CO)C(=O)N[C@H](C(=O)N[C@H](C(=O)N[C@@H](CO)C(=O)N[C@H](C(=O)N[C@@H](Cc1ccccc1)C(=O)N[C@@H](CO)C(=O)N[C@@H](CCCCN)C(=O)N[C@@H](CC(C)C)C(=O)N[C@@H](CCCNC(=N)N)C(=O)N[C@@H](CCC(=O)O)C(=O)N[C@@H](CCC(N)=O)C(=O)N[C@@H](CC(C)C)C(=O)NCC(N)=O)[C@@H](C)O)[C@@H](C)O)C(C)C [Helical peptide 9/1] (Ac-PALEDLRQGLLLKLLDNWDSVTSTFSKLREQLG-NH2)				stimulated cholesterol efflux in an ABCA1-dependent manner		retained ABCA1 stabilization activity				+	
CC(=O)N[C@@H](CC(C)C)C(=O)N[C@@H](CCCCN)C(=O)N[C@@H](CC(C)C)C(=O)N[C@@H](CC(C)C)C(=O)N[C@@H](CC(=O)O)C(=O)N[C@@H](CC(N)=O)C(=O)N[C@@H](Cc1c[nH]c2ccccc12)C(=O)N[C@@H](CC(=O)O)C(=O)N[C@@H](CO)C(=O)N[C@H](C(=O)N[C@H](C(=O)N[C@@H](CO)C(=O)N[C@H](C(=O)N[C@@H](Cc1ccccc1)C(=O)N[C@@H](CO)C(=O)N[C@@H](CCCCN)C(=O)N[C@@H](CC(C)C)C(=O)N[C@@H](CCCNC(=N)N)C(=O)N[C@@H](CCC(=O)O)C(=O)N[C@@H](CCC(N)=O)C(=O)N[C@@H](CC(C)C)C(=O)NCC(N)=O)[C@@H](C)O)[C@@H](C)O)C(C)C [Helical peptide 1] (Ac-LKLLDNWDSVTSTFSKLREQLG-NH2)		identical		failed to stimulate ABCA1-dependent cholesterol efflux	30	failed to prevent ABCA1 degradation					15
